From the supplement of paper PMC10307832

The cell lines below were run with Cc1nc(NC(=O)N2CCC[C@H]2C(N)=O)sc1-c1ccnc(C(C)(C)C(F)(F)F)c1 [Alpelisib] + N=C(N)NC(=N)NCCc1ccccc1 [Phenformin] (partner 250 µM) (assay: relative viability (nuclei count vs DMSO), 5 days (fraction); higher = more cells survive). Conditions: first compound 0.04 µM.
Method in brief: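 Relative viability equals treated-well nuclei counts divided by vehicle-well nuclei counts. Counts came from 4× images of lung cancer cell lines grown in 1536-well plates for 5 days after pin-tool dosing on the day after seeding. Dosing used one drug alone or a fixed anchor-drug dose plus five library-drug doses (not always all listed) in √10 steps, and values are medians of duplicate plates.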

Row | Cell Line | relative viability
1 | NCI-H1915 | 0.361
2 | NCI-H838 | 0.523
3 | A-427 | 0.354
4 | ABC-1 | 0.256
5 | EKVX | 0.234
6 | NCI-H2087 | 0.491
7 | NCI-H1734 | 0.376
8 | LCLC-103H | 0.344
9 | LU99A | 0.883
10 | NCI-H460 | 0.484
11 | HCC-15 | 0.5
12 | EMC-BAC-2 | 0.539
13 | NCI-H1792 | 0.593
14 | LC-2-ad | 0.603
15 | NCI-H2085 | 0.73
16 | NCI-H727 | 0.533
17 | NCI-H647 | 0.396

Row | Cell Line | relative viability
18 | HARA | 0.48
19 | NCI-H3122 | 0.409
20 | CAL-12T | 0.545
21 | LCLC-97TM1 | 0.493
22 | NCI-H23 | 0.779
23 | HCC-827 | 0.424
24 | NCI-H2347 | 0.445
25 | LXF-289 | 0.482
26 | NCI-H1666 | 0.557
27 | RERF-LC-KJ | 0.427
28 | NCI-H650 | 0.469
29 | NCI-H322M | 0.74
30 | NCI-H596 | 0.669
31 | 201T | 0.437
32 | NCI-H441 | 0.955
33 | HCC-78 | 0.708

Same assay, conditions: first compound 0.1265 µM

Row | Cell Line | relative viability
34 | NCI-H1915 | 0.378
35 | NCI-H838 | 0.507
36 | A-427 | 0.212
37 | ABC-1 | 0.252
38 | EKVX | 0.229
39 | NCI-H2087 | 0.483
40 | LCLC-103H | 0.347
41 | LU99A | 0.843
42 | NCI-H460 | 0.526
43 | HCC-15 | 0.434
44 | EMC-BAC-2 | 0.482
45 | NCI-H1792 | 0.262
46 | LC-2-ad | 0.549
47 | NCI-H2085 | 0.631
48 | NCI-H727 | 0.555
49 | NCI-H647 | 0.421

Row | Cell Line | relative viability
50 | HARA | 0.451
51 | NCI-H3122 | 0.403
52 | CAL-12T | 0.593
53 | LCLC-97TM1 | 0.439
54 | NCI-H23 | 0.702
55 | HCC-827 | 0.419
56 | NCI-H2347 | 0.299
57 | LXF-289 | 0.527
58 | NCI-H1666 | 0.602
59 | RERF-LC-KJ | 0.394
60 | NCI-H650 | 0.429
61 | NCI-H322M | 0.674
62 | NCI-H596 | 0.709
63 | 201T | 0.485
64 | NCI-H441 | 0.749
65 | HCC-78 | 0.54

Same assay, conditions: first compound 0.4 µM

Row | Cell Line | relative viability
66 | NCI-H1915 | 0.389
67 | NCI-H838 | 0.549
68 | A-427 | 0.329
69 | ABC-1 | 0.211
70 | EKVX | 0.253
71 | NCI-H2087 | 0.501
72 | NCI-H1734 | 0.349
73 | LCLC-103H | 0.311
74 | LU99A | 0.856
75 | NCI-H460 | 0.554
76 | HCC-15 | 0.45
77 | EMC-BAC-2 | 0.498
78 | NCI-H1792 | 0.291
79 | LC-2-ad | 0.586
80 | NCI-H2085 | 0.782
81 | NCI-H727 | 0.498
82 | NCI-H647 | 0.53

Row | Cell Line | relative viability
83 | HARA | 0.555
84 | NCI-H3122 | 0.41
85 | CAL-12T | 0.699
86 | LCLC-97TM1 | 0.385
87 | NCI-H23 | 0.783
88 | HCC-827 | 0.338
89 | NCI-H2347 | 0.416
90 | LXF-289 | 0.513
91 | NCI-H1666 | 0.576
92 | RERF-LC-KJ | 0.433
93 | NCI-H650 | 0.534
94 | NCI-H322M | 0.736
95 | NCI-H596 | 0.695
96 | 201T | 0.428
97 | NCI-H441 | 0.832
98 | HCC-78 | 0.708

Same assay, conditions: first compound 1.265 µM

Row | Cell Line | relative viability
99 | NCI-H1915 | 0.346
100 | NCI-H838 | 0.41
101 | A-427 | 0.26
102 | ABC-1 | 0.233
103 | EKVX | 0.225
104 | NCI-H2087 | 0.36
105 | NCI-H1734 | 0.275
106 | LCLC-103H | 0.245
107 | LU99A | 0.709
108 | NCI-H460 | 0.447
109 | HCC-15 | 0.372
110 | EMC-BAC-2 | 0.44
111 | NCI-H1792 | 0.0902
112 | LC-2-ad | 0.338
113 | NCI-H2085 | 0.698
114 | NCI-H727 | 0.412
115 | NCI-H647 | 0.378

Row | Cell Line | relative viability
116 | HARA | 0.331
117 | NCI-H3122 | 0.399
118 | CAL-12T | 0.543
119 | LCLC-97TM1 | 0.248
120 | NCI-H23 | 0.605
121 | HCC-827 | 0.371
122 | NCI-H2347 | 0.38
123 | LXF-289 | 0.481
124 | NCI-H1666 | 0.591
125 | RERF-LC-KJ | 0.345
126 | NCI-H650 | 0.349
127 | NCI-H322M | 0.558
128 | NCI-H596 | 0.421
129 | 201T | 0.348
130 | NCI-H441 | 0.469
131 | HCC-78 | 0.471

Same assay, conditions: first compound 4 µM

Row | Cell Line | relative viability
132 | NCI-H1915 | 0.347
133 | NCI-H838 | 0.355
134 | A-427 | 0.243
135 | ABC-1 | 0.222
136 | EKVX | 0.192
137 | NCI-H2087 | 0.284
138 | NCI-H1734 | 0.23
139 | LCLC-103H | 0.272
140 | LU99A | 0.657
141 | NCI-H460 | 0.142
142 | HCC-15 | 0.274
143 | EMC-BAC-2 | 0.34
